In the supplement of paper PMC10307832:

Legend:
Test in all cases: relative viability (nuclei count vs DMSO), 5 days (fraction); higher = more cells survive
DM3189 + Luminespib = compound: C1CN(CCN1)C2=CC=C(C=C2)C3=CN4C(=C(C=N4)C5=CC=NC6=CC=CC=C56)N=C3 [DM3189] + CCNC(=O)c1noc(-c2cc(C(C)C)c(O)cc2O)c1-c1ccc(CN2CCOCC2)cc1 [Luminespib] (partner 0.01 µM)
In short: (§1)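 Values are medians from duplicate plates. Each reflects relative viability, defined as the nuclei count of treated wells over that of vehicle wells. Lung cancer cell lines in 1536-well plates were pin-tool dosed one day after seeding with one drug alone or with a fixed anchor-drug dose plus five library-drug doses (not always all listed) in √10 steps, then fixed, stained and imaged at 4× after 5 days.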

DM3189 + Foretinib = compound: C1CN(CCN1)C2=CC=C(C=C2)C3=CN4C(=C(C=N4)C5=CC=NC6=CC=CC=C56)N=C3 [DM3189] + COc1cc2c(Oc3ccc(NC(=O)C4(C(=O)Nc5ccc(F)cc5)CC4)cc3F)ccnc2cc1OCCCN1CCOCC1 [Foretinib] (partner 0.25 µM)
In short: as §1

DM3189 + OSI-027 = compound: C1CN(CCN1)C2=CC=C(C=C2)C3=CN4C(=C(C=N4)C5=CC=NC6=CC=CC=C56)N=C3 [DM3189] + COc1cccc2cc(-c3nc([C@H]4CC[C@H](C(=O)O)CC4)n4ncnc(N)c34)[nH]c12 [OSI-027] (partner 0.5 µM)
In short: as §1

DM3189 + Alpelisib = compound: C1CN(CCN1)C2=CC=C(C=C2)C3=CN4C(=C(C=N4)C5=CC=NC6=CC=CC=C56)N=C3 [DM3189] + Cc1nc(NC(=O)N2CCC[C@H]2C(N)=O)sc1-c1ccnc(C(C)(C)C(F)(F)F)c1 [Alpelisib] (partner 2 µM)
In short: as §1

DM3189 + Decitabine = compound: C1CN(CCN1)C2=CC=C(C=C2)C3=CN4C(=C(C=N4)C5=CC=NC6=CC=CC=C56)N=C3 [DM3189] + Nc1ncn([C@H]2C[C@H](O)[C@@H](CO)O2)c(=O)n1 [Decitabine] (partner 2 µM)
In short: as §1

Cell Line | relative viability (DM3189 + Luminespib; first compound 0.08 µM) | relative viability (DM3189 + Luminespib; first compound 0.253 µM) | relative viability (DM3189 + Luminespib; first compound 0.8 µM) | relative viability (DM3189 + Luminespib; first compound 2.53 µM) | relative viability (DM3189 + Foretinib; first compound 0.08 µM) | relative viability (DM3189 + Foretinib; first compound 0.253 µM) | relative viability (DM3189 + Foretinib; first compound 0.8 µM) | relative viability (DM3189 + Foretinib; first compound 2.53 µM) | relative viability (DM3189 + OSI-027; first compound 0.08 µM) | relative viability (DM3189 + OSI-027; first compound 0.253 µM) | relative viability (DM3189 + OSI-027; first compound 0.8 µM) | relative viability (DM3189 + OSI-027; first compound 2.53 µM) | relative viability (DM3189 + Alpelisib; first compound 0.08 µM) | relative viability (DM3189 + Alpelisib; first compound 0.253 µM) | relative viability (DM3189 + Alpelisib; first compound 0.8 µM) | relative viability (DM3189 + Alpelisib; first compound 2.53 µM) | relative viability (DM3189 + Decitabine; first compound 0.08 µM) | relative viability (DM3189 + Decitabine; first compound 0.253 µM) | relative viability (DM3189 + Decitabine; first compound 0.8 µM) | relative viability (DM3189 + Decitabine; first compound 2.53 µM)
EMC-BAC-2 | 1.24 | 1.07 | 1.06 | 1.25 | 0.981 | 0.966 | 0.938 | 1.18 | 0.403 | 0.341 | 0.359 | 0.418 | 0.684 | 0.432 | 0.718 | 0.8 | 0.954 | 0.968 | 0.909 | 1.01
NCI-H727 | 0.402 | 0.377 |  | 0.31 | 0.792 | 0.821 | 0.668 | 0.818 | 0.471 | 0.606 | 0.486 | 0.583 | 0.638 | 0.503 |  | 0.56 | 0.886 | 0.769 | 0.846 | 0.976
LU99A | 0.229 | 0.19 |  | 0.23 | 0.82 | 0.731 |  | 0.661 | 0.293 | 0.299 |  | 0.308 | 0.468 | 0.422 |  | 0.384 | 1.09 | 0.837 |  | 0.777
LK-2 | 0.188 | 0.214 | 0.145 | 0.191 | 1.05 | 0.88 | 0.72 | 0.858 | 0.193 | 0.155 | 0.159 | 0.174 | 1.05 | 0.6 | 0.445 | 0.564 | 0.307 | 0.278 | 0.201 | 0.187
NCI-H322M | 0.958 | 0.818 | 0.739 | 0.666 | 0.942 | 0.944 | 0.886 | 0.774 | 0.622 | 0.596 | 0.541 | 0.506 | 0.734 | 0.867 | 0.805 | 0.884 | 0.628 | 0.683 | 0.767 | 0.696
NCI-H2405 | 0.704 | 0.754 | 0.646 | 0.491 | 1.04 | 1.06 | 1.02 | 1.05 | 0.584 | 0.608 | 0.636 | 0.724 | 0.527 | 0.709 | 0.58 | 0.677 | 0.744 | 0.744 | 0.691 | 0.756
NCI-H1563 | 0.568 | 0.487 | 0.481 | 0.539 | 0.953 | 0.817 | 0.98 | 0.987 | 0.876 | 0.673 | 0.749 | 0.785 | 0.909 | 0.896 | 0.949 | 0.839 |  |  |  | 
HCC-827 | 0.589 | 0.515 | 0.608 | 0.583 | 1.1 | 0.945 | 0.953 | 0.935 | 0.886 | 0.812 | 0.842 | 0.822 | 1.1 | 0.888 | 0.847 | 1.03 | 0.34 | 0.311 | 0.324 | 0.296
